{"source": "patent US8835467B2", "about": "“SIR2 regulation” (Albert Einstein College of Medicine of Yeshiva University, priority 2003, dated 2014)", "key": {"[1]": {"target": "T1, Mouse SIR2 enzyme (SIR2α) (Mus musculus, UniProt Q923E4)", "T1 construct": "purchased Upstate Group", "T1 sequence (Q923E4 1-737)": "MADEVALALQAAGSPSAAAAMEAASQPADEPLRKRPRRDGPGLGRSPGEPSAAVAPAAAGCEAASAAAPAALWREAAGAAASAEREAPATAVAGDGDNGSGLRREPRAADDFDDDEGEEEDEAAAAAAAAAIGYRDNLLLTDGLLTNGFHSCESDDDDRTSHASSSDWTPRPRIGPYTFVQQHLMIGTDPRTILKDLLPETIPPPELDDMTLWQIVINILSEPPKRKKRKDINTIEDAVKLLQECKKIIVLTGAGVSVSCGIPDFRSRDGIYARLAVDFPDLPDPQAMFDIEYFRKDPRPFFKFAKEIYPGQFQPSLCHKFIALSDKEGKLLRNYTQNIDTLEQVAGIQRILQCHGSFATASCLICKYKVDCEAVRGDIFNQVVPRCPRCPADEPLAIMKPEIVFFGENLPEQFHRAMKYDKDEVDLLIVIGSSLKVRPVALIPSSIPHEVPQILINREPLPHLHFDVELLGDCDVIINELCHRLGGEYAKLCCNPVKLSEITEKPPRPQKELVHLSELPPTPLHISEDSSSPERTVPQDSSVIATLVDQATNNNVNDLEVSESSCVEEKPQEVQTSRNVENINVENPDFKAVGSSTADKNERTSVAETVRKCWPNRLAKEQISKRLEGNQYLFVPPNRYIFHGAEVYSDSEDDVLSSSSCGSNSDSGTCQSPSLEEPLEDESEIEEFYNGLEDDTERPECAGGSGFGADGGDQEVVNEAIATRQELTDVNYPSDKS", "experiment": "SIR2 deacetylation assay (p53 peptide, HPLC of ADPR and 3′-O-acetyl-ADPR)", "format": "biochemical", "procedure": "(§1) After 2 hours, aliquots of 10 μL removed at 0, 30, 60, 90 and 120 min. Each aliquot was combined with 50 μL 50 mM ammonium acetate pH 5.0 to quench and assayed by HPLC for deacetylation products and NAD^+. The chromatograms (260 nm) were obtained using 50 mM ammonium acetate pH 5.0 as eluant on a semi-preparative Waters C-18 column (2.0 mL/min flow rate). Peaks for ADPR and 3′-O-Acetyl-ADPR were quantified by integration. The peak for NAD^+ was collected and radiation counted.\n(§2) Reactions were as above but base reactions contained 5 mM of pyrazinamide, isonicotinamide, thionicotinamide, or benzamide. Reactions were carried out (2 hours for AF2 and yeast enzymes and 3 hours for mouse enzyme) at 37° C. and quenched by addition of 80 μL 50 mM ammonium acetate pH 5.0. Product formation was quantified by HPLC. […] Rates were compared with controls lacking added base."}, "Yeast SIR2p": {"target": "T2, Yeast SIR2p (Saccharomyces cerevisiae, UniProt P06700)", "T2 construct": "made in house", "T2 sequence (P06700 whole entry)": "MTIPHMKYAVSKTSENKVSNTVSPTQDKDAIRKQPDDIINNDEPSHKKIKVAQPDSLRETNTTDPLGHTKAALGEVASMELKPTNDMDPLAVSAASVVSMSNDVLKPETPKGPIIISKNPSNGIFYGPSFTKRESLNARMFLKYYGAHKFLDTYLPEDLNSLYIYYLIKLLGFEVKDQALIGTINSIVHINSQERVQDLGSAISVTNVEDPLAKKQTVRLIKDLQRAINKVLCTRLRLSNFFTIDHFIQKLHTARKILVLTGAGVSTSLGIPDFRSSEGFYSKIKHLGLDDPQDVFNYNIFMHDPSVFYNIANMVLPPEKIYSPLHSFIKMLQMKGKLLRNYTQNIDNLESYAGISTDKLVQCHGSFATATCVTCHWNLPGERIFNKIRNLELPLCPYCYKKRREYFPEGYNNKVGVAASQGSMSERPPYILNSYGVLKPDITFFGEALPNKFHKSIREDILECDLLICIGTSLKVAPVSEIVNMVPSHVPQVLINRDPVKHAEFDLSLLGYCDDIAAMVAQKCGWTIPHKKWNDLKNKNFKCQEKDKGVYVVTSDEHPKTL", "experiment": "SIR2 deacetylation assay (p53 peptide, HPLC of ADPR and 3′-O-acetyl-ADPR)", "format": "biochemical", "procedure": "as §1, §2"}, "Yeast Sir2": {"target": "Yeast Sir2 (Saccharomyces cerevisiae, UniProt P06700)", "sequence (P06700 whole entry)": "as above", "experiment": "Sir2 catalyzed base exchange with H4 N-terminal peptide", "format": "biochemical", "procedure": "Measurements were performed by methods described in Sauve and Schramm (2003) with the H4N-terminal peptide (AGG(AcK)GG(AcK)GMG(AcK)VGA(AcK)RHSC) (Imai et al., 2000) as substrate."}, "[2]": {"system": "Sir2-dependent transcriptional silencing at the rDNA locus", "experiment": "rDNA locus URA3 silencing on FOA-containing media", "format": "cell-based, yeast", "conditions": "RDN1::URA3 strain; 25 mM isonicotinamide", "procedure": "Ten-fold serial dilutions of yeast strains were spotted onto control (YPD) or selective media (vanLeeuwen and Gottschling, 2002). The photographs were taken after 2 to 3 days incubation. […] Isogenic strains UCC4562 (DOT1) and UCC4554 (dot1Δ) (Singer et al., 1998) are shown in each panel (top and bottom rows, respectively). […] The phenotype of strain CCFY10028 (top row) is compared to an isogenic sir2 derivative (bottom row). The sir2 deletion strain was generated by PCR-mediated gene disruption using a Nat-MX selectable marker (Tong et al., 2004).\nSir2 also localizes to the nucleolus where it functions to propagate a specialized chromatin structure on the rDNA (Rusche at al., 2003). […] Thus, isonicotinamide increases the activity of Sir2 in vivo at all three types of silent loci."}}}
{"smiles": "NC(=O)c1ccncc1", "note": "[Isonicotinamide]", "values": [{"measurement": "inhibition at 5000 µM", "setting": "[1]", "value": 18, "unit": "%"}, {"measurement": "inhibition at 5000 µM", "setting": "Yeast SIR2p", "value": 0, "unit": "%"}, {"measurement": "inhibition at 42000 µM", "setting": "Yeast SIR2p; pH 7.6", "value": 5, "unit": "%"}, {"measurement": "effect on base exchange", "setting": "Yeast Sir2; 125 μM [carbonyl-14C]nicotinamide, increasing isonicotinamide", "value": "Base exchange is inhibited"}, {"measurement": "Ki", "setting": "Yeast Sir2; read-out: Ki for isonicotinamide", "value": 60, "unit": "mM"}, {"measurement": "silencing at the rDNA locus (resistance to FOA)", "setting": "[2]", "value": "increases silencing at the rDNA locus"}]}
